Reference: publication PMC9400870 (2022)

Legend:
[1] = tested on: pApU (RNA, polymer) A/U; test: fluorimetric titration, Scatchard fit; settings: Na+ (sodium cacodylate, I = 0.05 M); pH 7.0; compound 5×10^-7 M; n fixed at 0.1; per base
[2] = tested on: p(dGdC)2 (DNA, polymer) GC; test: fluorimetric titration, Scatchard fit; settings: Na+ (sodium cacodylate, I = 0.05 M); pH 7.0; compound 5×10^-7 M; n fixed at 0.1; per base
[3] = tested on: pApU (RNA, polymer) A/U; test: UV thermal denaturation, 260 nm; settings: Na+ (sodium cacodylate, I = 0.05 M), pH 7, per base
[4] = tested on: p(dAdT)2 (DNA, polymer) AT; test: UV thermal denaturation, 260 nm; settings: Na+ (sodium cacodylate, I = 0.05 M), pH 7, polynucleotide 2×10^-5 M, per base
[5] = tested on: p(dAdT)2 (DNA, polymer) AT; test: fluorimetric titration, Scatchard fit; settings: Na+ (sodium cacodylate, I = 0.05 M); pH 7.0; compound 5×10^-7 M; n fixed at 0.1; per base
[6] = r [compound]/[polynucleotide] = 0.3

C[n+]1ccc(C#Cc2c(F)c(F)c(C#Cc3cc[n+](C)cc3)c(F)c2F)cc1
log Ks [1]: 5.0 M^-1 | log Ks [2]: 5.1 M^-1 | ΔTm [3, 6]: 1.0 ± 0.5 °C | ΔTm [4, 6]: 7.0 ± 0.5 °C | log Ks [5]: 5.2 M^-1

C[n+]1ccc(C#Cc2c3ccccc3c(C#Cc3cc[n+](C)cc3)c3ccccc23)cc1
log Ks [1]: 5.3 M^-1 | log Ks [2]: 7.0 M^-1 | ΔTm ([3]; r [compound]/[polynucleotide] = 0.2, polynucleotide 2×10^-5 M): 39.0 ± 0.5 °C | ΔTm ([4]; r [compound]/[polynucleotide] = 0.2): 37 ± 0.5 °C | log Ks [5]: 6.6 M^-1

C[n+]1ccc(C#Cc2ccc(C#Cc3cc[n+](C)cc3)cc2)cc1
log Ks [1]: 5.3 M^-1 | log Ks [2]: 5.9 M^-1 | ΔTm [3, 6]: 0 ± 0.5 °C | ΔTm [4, 6]: 2.0 ± 0.5 °C | log Ks [5]: 4.5 M^-1
